“And” between values parts separate entries of the source, which are not always exact repeats. Equal entries are not always repeated.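 Exposure lasted 48 hours, with cells grown in 96-well plates and compounds tested at five concentrations. Definition used: TGI = concentration required for complete inhibition of growth.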
Assays:
Test in all cases: growth of human tumour cells (NCI), 48 h
HCT-116 colon = system: HCT-116 colon
HOP-92 NSCLC = system: HOP-92 NSCLC
COLO 205 colon = system: COLO 205 colon
SNB-19 CNS = system: SNB-19 CNS
SF-295 CNS = system: SF-295 CNS
SF-268 CNS = system: SF-268 CNS
NCI/ADR-RES ovarian = system: NCI/ADR-RES ovarian
NCI-H460 lung = system: NCI-H460 lung
NCI-H522 lung = system: NCI-H522 lung
SF-539 CNS = system: SF-539 CNS

Compound	TGI (HCT-116 colon)	TGI (HOP-92 NSCLC)	TGI (COLO 205 colon)	TGI (SNB-19 CNS)	TGI (SF-295 CNS)	TGI (SF-268 CNS)	TGI (NCI/ADR-RES ovarian)	TGI (NCI-H460 lung)	TGI (NCI-H522 lung)	TGI (SF-539 CNS)
COc1cc2c(c(OC)c1OC)-c1ccc(SC)c(=O)cc1[C@@H](NCc1ccc(F)cc1)CC2	0.079 µM	75 µM and 7.99 µM	< 0.0075 µM	75 µM	22 µM and > 100 µM	–	–	–	–	–
CC(CSC(=N)N)C(N)=O (stereo unspecified)	> 100 µM	> 100 µM	> 100 µM	> 100 µM	> 100 µM	> 100 µM	> 100 µM	> 100 µM	> 100 µM	–
COC(=O)C(=O)C(C(=O)OC)C(=O)C(=O)Nc1c(C)cccc1C (stereo unspecified)	> 100 µM	> 100 µM	> 100 µM	> 100 µM	> 100 µM	> 100 µM	–	> 100 µM	> 100 µM	> 100 µM
Clc1ccc(Cl)c(N=Nc2cc3c4c(c2)CCN4CCC3)c1	> 10 µM	> 10 µM	> 10 µM	> 10 µM	> 10 µM	> 10 µM	> 10 µM	> 10 µM	> 10 µM	> 10 µM
COC(=O)c1ccc2c(c1)CC1(C2)Cc2cc3c(cc2C1)CCC3	> 100 µM	> 100 µM	–	> 100 µM	> 100 µM	> 100 µM	> 100 µM	> 100 µM	> 100 µM	> 100 µM
CCCCOCCOCCOC1=CC(=O)c2c(O)ccc(O)c2C1=O	3.22 µM	6.28 µM	2.74 µM	3.19 µM	3.06 µM	> 10 µM	5.14 µM	3.69 µM	2.99 µM	3.46 µM
CCOC(=O)c1c[nH]c(C(=O)OCC)c1-c1cccn1-c1ccccc1	30.3 µM	> 100 µM	38.5 µM	> 100 µM	52.3 µM	> 100 µM	76 µM	65.5 µM	55.4 µM	–
COc1ccc(C(O)/C(=N/N)c2nc3ccc(Cl)cc3[nH]c2=O)cc1 (stereo unspecified)	> 100 µM	> 100 µM	> 100 µM	> 100 µM	> 100 µM	> 100 µM	> 100 µM	> 100 µM	> 100 µM	> 100 µM
CC(=O)CCCCn1c(=O)c2c(nc(Br)n2C)n(C)c1=O	> 100 µM	31.7 µM	> 100 µM	> 100 µM	> 100 µM	> 100 µM	> 100 µM	> 100 µM	24.9 µM	> 100 µM
Nc1nc(Nc2ccc(Cl)c(Cl)c2)nc2nc[nH]c12	34.1 µM	33.5 µM	44.3 µM	32 µM	35.7 µM	22.9 µM	38.3 µM	34 µM	29.3 µM	26.7 µM
Nc1nc2c(N)cc(C(F)(F)F)cc2nc1-c1ccccc1	> 100 µM	> 100 µM	> 100 µM	> 100 µM	> 100 µM	> 100 µM	–	> 100 µM	> 100 µM	> 100 µM
FC(F)(F)c1ccccc1C1SCC2=Nc3ccccc3CN21 (stereo unspecified)	23.1 µM	60.9 µM	25 µM	26.3 µM	26.2 µM	29.2 µM	35.7 µM	31.8 µM	–	22.6 µM
COc1ccc2[nH]c3c(c2c1)[C@H](c1ccccc1)C[C@@H]1C(=O)N(c2ccccc2)C(=O)[C@H]31	19 µM	76.3 µM	> 100 µM	> 100 µM	> 100 µM	> 100 µM	–	84.1 µM	> 100 µM	> 100 µM
CCOC1=C2N=C(C(CC)c3ccccc3F)N=C2C(=O)c2ccccc21 (stereo unspecified)	> 100 µM	> 100 µM	> 100 µM	> 100 µM	> 100 µM	> 100 µM	–	> 100 µM	> 100 µM	> 100 µM
CC(C)c1cccc(C(C)C)c1NC(=O)C(=O)Cc1nc2ccc([N+](=O)[O-])cc2[nH]c1=O	> 100 µM	> 100 µM	> 100 µM	> 100 µM	> 100 µM	–	–	> 100 µM	54.4 µM	> 100 µM
Cc1ccc(S(=O)c2cccs2)cc1 (stereo unspecified)	> 100 µM	> 100 µM	> 100 µM	> 100 µM	> 100 µM	> 100 µM	> 100 µM	> 100 µM	–	> 100 µM
COc1ccc(C2c3cc4c(cc3OC(NNc3ccccc3)C2C)OCO4)cc1 (stereo unspecified)	43.2 µM	67.9 µM	20.5 µM	> 100 µM	> 100 µM	> 100 µM	–	> 100 µM	94.6 µM	6.55 µM
N#CC(NNC(=O)Cc1ccccc1)c1cccc(O)c1 (stereo unspecified)	> 100 µM	> 100 µM	> 100 µM	–	> 100 µM	> 100 µM	–	> 100 µM	> 100 µM	> 100 µM
O=c1[nH]nc(Cc2ccccc2)n1/N=C/c1cccs1	> 100 µM	–	> 100 µM	> 100 µM	> 100 µM	> 100 µM	> 100 µM	> 100 µM	–	> 100 µM
Clc1ccc(Nc2nnc(CNc3ccc(-c4nnc(Nc5ccc(Cl)cc5)s4)cc3)s2)cc1	30.8 µM	> 100 µM	45.3 µM	> 100 µM	84.3 µM	> 100 µM	> 100 µM	> 100 µM	43.2 µM	–
CN(C)CCNc1ccc2ncn3c4ccccc4c(=O)c1c23	12 µM	9.51 µM	4.03 µM	47.5 µM	13.4 µM	20.2 µM	–	6.86 µM	5.41 µM	16.9 µM
CC(C)C1CNC(=O)C2(C=NC(C(C)C)CNC(=O)C3(C=N1)CCCO3)CCCO2 (stereo unspecified)	> 10 µM	> 10 µM	> 10 µM	> 10 µM	> 10 µM	> 10 µM	> 10 µM	–	> 10 µM	> 10 µM
[N-]=[N+]=Nc1ccccc1-c1ccccc1[N+](=O)[O-]	> 100 µM	> 100 µM	–	> 100 µM	> 100 µM	> 100 µM	92.1 µM	99 µM	45.4 µM	–
COc1cc2ccc3c4ccccc4cnc3c2cc1OC	> 100 µM	> 100 µM	> 100 µM	> 100 µM	> 100 µM	> 100 µM	–	> 100 µM	> 100 µM	> 100 µM
CC(=O)OI1NC(=O)c2ccccc21	> 100 µM	> 100 µM	> 100 µM	> 100 µM	> 100 µM	> 100 µM	> 100 µM	–	> 100 µM	–

Compound	TGI (HCT-116 colon)	TGI (HOP-92 NSCLC)	TGI (COLO 205 colon)	TGI (SNB-19 CNS)	TGI (SF-295 CNS)	TGI (SF-268 CNS)	TGI (NCI/ADR-RES ovarian)	TGI (NCI-H460 lung)	TGI (NCI-H522 lung)	TGI (SF-539 CNS)
Cc1c(O)c(=O)ccn1CCN	> 100 µM	> 100 µM	> 100 µM	> 100 µM	–	> 100 µM	–	> 100 µM	> 100 µM	–
CSc1ncnc2c1cnn2Cc1cn(COCCO)nn1	> 100 µM	> 100 µM	> 100 µM	> 100 µM	–	> 100 µM	> 100 µM	> 100 µM	–	> 100 µM
CC1=C(c2nc3ccccc3s2)C(=O)OC1(C)C	> 100 µM	–	> 100 µM	> 100 µM	> 100 µM	> 100 µM	–	> 100 µM	> 100 µM	> 100 µM
CSc1nc(=S)[nH]c2c1c(C)nn2-c1ccccc1	43.2 µM	35.7 µM	56.5 µM	> 100 µM	84.4 µM	> 100 µM	–	58.9 µM	65.4 µM	98.2 µM
COC(=O)C1CC2C=CC=CC(=O)C2(C)C1 (stereo unspecified)	86.3 µM	–	> 100 µM	> 100 µM	> 100 µM	> 100 µM	–	> 100 µM	–	> 100 µM
COc1ccc(C2=Nc3c(nc(OC)[nH]c3=O)NC(c3ccccc3)C2)cc1 (stereo unspecified)	> 100 µM	> 100 µM	50.3 µM	> 100 µM	> 100 µM	–	> 100 µM	–	> 100 µM	94.1 µM
O=C(NCCN1CCCCC1)c1ccc(Br)cc1	> 100 µM	> 100 µM	> 100 µM	> 100 µM	> 100 µM	> 100 µM	> 100 µM	> 100 µM	> 100 µM	–
CC(=O)Nc1[nH]n(C)c(=O)c1-c1nnc(C)s1	> 100 µM	> 100 µM	> 100 µM	> 100 µM	–	> 100 µM	–	> 100 µM	> 100 µM	> 100 µM
Brc1ccc(C2C3CSc4ccccc4C3=NN2c2ccccc2)cc1 (stereo unspecified)	> 100 µM	> 100 µM	> 100 µM	> 100 µM	–	> 100 µM	> 100 µM	> 100 µM	–	> 100 µM
COc1ccc(N2C(=O)c3c(c4[nH]c5ccccc5c4c4ccc(C(C)(C)C)cc34)C2=O)cc1	> 100 µM	64.2 µM	> 100 µM	> 100 µM	92.9 µM	74.4 µM	–	> 100 µM	> 100 µM	> 100 µM
C1CNOCCCONCCCNOCCCONC1	> 100 µM	82.1 µM	> 100 µM	> 100 µM	> 100 µM	> 100 µM	> 100 µM	94 µM	> 100 µM	–
CC(C)OC(=O)c1ccc(NCc2cc(O)ccc2O)cc1	19.8 µM	5.03 µM	9.48 µM	> 68.7 µM	20.4 µM	28.4 µM	–	> 100 µM	0.638 µM	3.34 µM
O=Cc1c[nH]c2c(=O)[nH]cnc12	> 100 µM	> 100 µM	> 100 µM	> 100 µM	> 100 µM	> 100 µM	–	–	> 100 µM	–
CO/C(N)=C(\C#N)N=Cc1ccc2ccccc2c1	> 100 µM	> 100 µM	51.8 µM	–	> 100 µM	> 100 µM	> 100 µM	–	> 100 µM	–
CC(C)(C)N=CN1C=Cc2nc3ccccc3cc2C1	> 100 µM	> 100 µM	> 100 µM	> 100 µM	> 100 µM	> 100 µM	–	> 100 µM	> 100 µM	> 100 µM
CC(C)[C@@H]1CC[C@@H](C)C[C@H]1OC(=O)c1c2n(c3ccccc13)C[C@H]1OC(C)(C)O[C@@H]21	> 100 µM	–	> 100 µM	–	> 100 µM	> 100 µM	> 100 µM	–	–	–
CCCCCCCC/C=C1\CCC(CN(C)C)C1=O (stereo unspecified)	7.34 µM	8.02 µM	14.8 µM	30.4 µM	18 µM	21.2 µM	–	28.4 µM	13.3 µM	9.32 µM
Cn1c(=O)c2[nH]c(N=O)nc2n(C)c1=O	> 100 µM	–	> 100 µM	–	> 100 µM	> 100 µM	> 100 µM	> 100 µM	> 100 µM	> 100 µM
CCOC(=O)N/N=C(/N)c1cccc(Br)c1	> 100 µM	–	> 100 µM	> 100 µM	> 100 µM	> 100 µM	> 100 µM	> 100 µM	> 100 µM	> 100 µM
CC(C)(C)OC(=O)NC1CCCC1C(=O)C1=CCCC1 (stereo unspecified)	> 100 µM	> 100 µM	> 100 µM	> 100 µM	–	> 100 µM	> 100 µM	> 100 µM	–	–
CCOC(=O)c1c2ccc(/C=C/c3ccccn3)ccc-2c(C(=O)OCC)c1N	–	> 100 µM	> 100 µM	> 100 µM	> 100 µM	0.966 µM	–	> 100 µM	> 100 µM	> 100 µM
Nc1nc(NNc2cccc(F)c2)cc(=O)[nH]1	61.2 µM	–	54.3 µM	> 100 µM	> 100 µM	–	> 100 µM	> 100 µM	–	> 100 µM
CN(C)CCN(C)P12(Oc3ccccc3O1)Oc1c(Cl)c(Cl)c(Cl)c(Cl)c1O2	> 100 µM	92.7 µM	> 100 µM	> 100 µM	> 100 µM	> 100 µM	> 100 µM	> 100 µM	–	–
COC(=O)C1(NC(=O)C(Cc2ccccc2)N(C(=O)OC(C)(C)C)C(=O)OC(C)(C)C)CCCC1 (stereo unspecified)	> 100 µM	> 100 µM	> 100 µM	> 100 µM	–	> 100 µM	> 100 µM	> 100 µM	–	> 100 µM
COc1ccc(/C=c2\c(=O)[nH]c3nc4ccccc4c(=O)n23)cc1	> 100 µM	> 100 µM	> 100 µM	> 100 µM	> 100 µM	> 100 µM	> 100 µM	–	> 100 µM	> 100 µM

Source: PubChem BioAssay (NCI)
